Consider 7 compounds from US20140148492A1, “BICYCLOSUBSTITUTED PYRAZOLE COMPOUNDS FOR TREATING HAIR LOSS” (Boehringer Ingelheim International GmbH, priority 2012, published 2014).

The assay deals with T1, human CRTH2 receptor (Homo sapiens, UniProt Q9Y5Y4).
T1 construct: host or cells: CHO-K1 (CHO-K1-hCRTH2 cells), membranes prepared in house
T1 sequence (Q9Y5Y4 1-395): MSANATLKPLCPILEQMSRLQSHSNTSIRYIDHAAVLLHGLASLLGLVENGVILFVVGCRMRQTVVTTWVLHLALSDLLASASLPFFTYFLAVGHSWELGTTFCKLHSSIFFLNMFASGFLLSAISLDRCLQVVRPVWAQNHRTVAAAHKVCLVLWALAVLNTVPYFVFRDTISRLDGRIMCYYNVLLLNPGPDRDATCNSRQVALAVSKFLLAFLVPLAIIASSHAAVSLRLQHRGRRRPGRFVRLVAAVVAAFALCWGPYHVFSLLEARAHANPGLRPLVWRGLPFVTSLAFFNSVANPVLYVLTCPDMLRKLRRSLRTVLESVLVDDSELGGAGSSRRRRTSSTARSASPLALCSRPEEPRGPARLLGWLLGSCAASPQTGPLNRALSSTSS
In words: CRTH2 receptor radioligand binding assay (SPA, [3H]-PGD2). The settings on record: displacement of [3H]-PGD2 (1 nM) from CHO-K1-hCRTH2 cell membranes, SPA format, 3 h room temperature. Here is the method: The binding of CRTH2 antagonists is determined using membranes prepared from Chinese hamster ovary cells (CHO-K1 cells) transfected with the human CRTH2 receptor (CHO-K1-hCRTH2 cells, Perkin Elmer, Cat No ES-561-C). To produce cell membranes the CHO-K1-hCRTH2 cells are cultured in suspension in CHO SFMII medium supplemented with 400 μg/ml G418. The cells are harvested by centrifugation at 300 g for 10 min at room temperature. The cell pellet is resuspended in Phosphate Buffer Saline (PBS) including a protease inhibitor mix (Complete, Roche) and adjusted to a concentration of 10E7 cells/ml. The CHO-K1-hCRTH2 cells are disrupted by nitrogen […] to obtain the membrane preparation. Cell debris is removed by centrifugation (500 g at 4° C., 30 min) and the supernatant is transferred into fresh tubes followed by a second centrifugation at 40000 g for 1 h at 4° C. to sediment the membranes. The membranes are suspended in SPA incubation buffer (50 mM Tris HCl, 10 mM MgCl2, 150 mM NaCl, 1 mM EDTA, pH 7.4) without bovine serum albumin, homogenized by passing through a single use needle (Terumo, 23G×1″), and stored in aliquots at −80° C.
The CRTH2 receptor binding assay is performed in a scintillation proximity assay (SPA) format with the radioligand [^3H]-PGD2 (Perkin Elmer, NET616000MC). CHO-K1-hCRTH2 cell membranes are again homogenized by passing through a single use needle (Terumo, 23G×1″) and diluted in SPA incubation buffer in suitable concentrations (0.5-10 μg protein/well). The SPA assay is set up in 96 well microtiter plates (Perkin Elmer, CatNo. 6005040) in SPA incubation buffer with a final volume of 200 μl per well and final concentration of 50 mM Tris-HCl, 10 mM MgCl2, 150 mM NaCl, 1 mM EDTA pH 7.4, 0.1% bovine serum albumin). The SPA assay mixture contains 60 μl of the membrane suspension, 80 μl of Wheat Germ Agglutinin coated PVT beads (GE Healthcare, RPNQ-0001, 0.3 mg/well), 40 μl of [3H]-PGD2 diluted in SPA buffer to a final concentration of 1 nM (50 000 dpm) and 20 μl of the test compound (dissolved in dimethylsulfoxid). The SPA assay mixture is incubated for 3 h at room temperature. Bound radioactivity is determined with a scintillation counter (Micro Beta Trilux, Wallac).
The binding of [^3H]-PGD2 to CHO-K1-hCRTH2 cell membranes is determined in the absence (total binding, Bo) and presence (non-specific binding, NSB) of unlabelled PGD2 (1 μM, Cayman Chemical, Cat No 12010) or a reference CRTH2 antagonist (10 μM CAY10471, Cayman Chemical, Cat No 10006735).
Determination of the affinity of a test compound is calculated by subtraction of the non-specific binding (NSB) from the total binding (Bo) or the binding in the presence of the test compound (B) at a given compound concentration. […] The Bo-NSB value is set to 0% inhibition.
As for `Cc1nn(Cc2ccc(NC(=O)c3cc4ccccc4o3)cc2)c(C)c1CC(=O)O` [Cmpd 26], the Ki was 0.8 nM. As for `CCc1c(C(=O)Nc2ccc(Cn3nc(C)c(CC(=O)O)c3C)cc2)oc2ccc(F)cc12` [Cmpd 48], the figure is 1.2 nM; as for `Cc1nn(Cc2ccc(NC(=O)c3oc4ccc(Br)cc4c3C)cc2F)c(C)c1CC(=O)O` [Cmpd 45], 0.3 nM; as for `Cc1nn(Cc2ccc(NC(=O)c3oc4ccc(F)cc4c3C)cc2)c(C)c1CC(=O)O` [Cmpd 4], 0.8 nM. As for `Cc1nn(Cc2ccc(NC(=O)c3cc4ccccc4[nH]3)cc2F)c(C)c1CC(=O)O` [Cmpd 1], the figure is 0.8 nM; as for `Cc1nn(Cc2ccc(NC(=O)c3oc4ccc(F)cc4c3C)cc2F)c(C)c1CC(=O)O` [Cmpd 27], 0.6 nM. The same measure for `CCn1c(C(=O)Nc2ccc(Cn3nc(C)c(CC(=O)O)c3C)c(F)c2)cc2cc(F)ccc21` [Cmpd 32]: 0.2 nM.

One may read the Ki as a dissociation constant, usually derived from enzyme kinetics or from competition with a known ligand. High values mean weaker binding, low ones tighter binding.
